# Source: US12215123B2, “Cordycepin-based derivatized compound with anti-tumor effect” (NANJING TECH UNIVERSITY, priority 2022, dated 2025)
# Where a name gives a salt, the structure may show the parent alone. Read-outs that look alike come from different tables or passages of the source.
# What was measured:
# [1] = test system: gastric cancer cell line BGC-823; experiment: MTT proliferation, gastric cancer cell line BGC-823; assay type: cell-based; conditions: MTT, 72 hours, BGC-823, read-out: IC50 (μM) in gastric cancer cells, BGC-823
# Description: (§1) The method for determining inhibitory activities of the compounds on the proliferation of tumor cells by an MTT method is as follows: a bottle of cells in a good state in an exponential growth phase is added with 0.25% trypsin digestive juice, the digestion makes adherent cells fall off, with 2 to 4×10^4 cells/mL, and a cell suspension is prepared. The cell suspension is inoculated on a 96-well plate, with 90 μL/well, and cultured in a constant-temperature CO2 incubator for 24 hours. The prepared compounds are added for testing, with 10 μL/well, and cultured for 72 hours. An MTT reagent is added into a 96-well plate, with 10 μL/well, and reacts in an incubator for 4 hours to absorb a supernatant, and then dimethyl sulfoxide is added, with 100 μL/well. After a crystal is dissolved, an absorbance of each well at a wavelength of 570 nm is measured by an enzyme-linked immunosorbent assay instrument, and a cell inhibition rate is calculated. An S curve is made with a compound concentration and a corresponding inhibition rate. Therefore, IC50 of a corresponding compound is obtained.
# (§2) Anti-tumor dose-effect relationship curves of the cordycepin and 40 compounds prepared in gastric cancer cell lines AGS and BGC-823 were analyzed by an MTT experimental method.
# [2] = test system: gastric cancer cell line AGS; experiment: MTT proliferation, gastric cancer cell line AGS; assay type: cell-based; conditions: MTT, 72 hours, AGS; read-out: IC50 (μM) in gastric cancer cells, AGS
# Description: as §1, §2
molecule,measurement,setting,value
Nc1ncnc2c1ncn2[C@@H]1O[C@H](COCP(=O)(O)O)CC1O (some centres unmarked) [Compound 3],IC50,[1]; Homo sapiens,61.4 µM
same,IC50,[2],86.7 µM
"Nc1nc(S)nc2c1ncn2[C@@H]1O[C@H](COP(=O)(O)O)CC1O (some centres unmarked) [Compound 14, (5-(6-amino-2-mercapto-9H-purine-9-yl)-4-hydroxytetrahydrofuran-2-yl)dihydromethyl phosphate]",IC50,[1]; Homo sapiens,18.6 µM
same,IC50,[2],12.9 µM
"Nc1ncnc2c1ncn2[C@@H]1O[C@H](COP(=O)(O)O)[C@H](F)C1O (some centres unmarked) [Compound 15, (5-(6-amino-9H-purine-9-yl)-3-fluoro-4-hydroxytetrahydrofuran-2-yl)dihydromethyl phosphate]",IC50,[1]; Homo sapiens,20.7 µM
same,IC50,[2],18.4 µM
CC(C)(C)C(=O)OCOP(=O)(COC[C@@H]1CC(O)[C@H](n2cnc3c(N)nc(F)nc32)O1)OCOC(=O)C(C)(C)C (some centres unmarked) [Compound 17],IC50,[1]; Homo sapiens,2.39 µM
same,IC50,[2],1.32 µM
"CC(C)(C)C(=O)OCOP(=O)(COC[C@H]1O[C@@H](n2cnc3c(N)ncnc32)C(O)[C@H]1N=[N+]=[N-])OCOC(=O)C(C)(C)C (some centres unmarked) [Compound 26, (((((5-(6-amino-9H-purine-9-yl)-3-azide-4-hydroxytetrahydrofuran-2-yl)methoxy)methyl)phosphoryl)bis(oxy))bis(methylene)bis(2,2-dimethylpropionic acid)]",IC50,[1]; Homo sapiens,46.6 µM
same,IC50,[2],57.4 µM
"CC(C)C(N)C(=O)OC1C[C@@H](CO)O[C@H]1n1cnc2c(N)ncnc21 (some centres unmarked) [Compound 29, 2-(6-amino-9H-purin-9-yl)-5-(hydroxymethyl)tetrahydrofuran-3-yl valine salt]",IC50,[1]; Homo sapiens,41.4 µM
same,IC50,[2],32.5 µM
"CC(C)C(N)C(=O)OC1C[C@@H](COP(=O)(O)O)O[C@H]1n1cnc2c(N)ncnc21 (some centres unmarked) [Compound 30, 2-(6-amino-9H-purin-9-yl)-5-(phosphonoxy)methyl)tetrahydrofuran-3-yl valine salt]",IC50,[1]; Homo sapiens,64.2 µM
same,IC50,[2],75.4 µM
"CC(C)C(N)C(=O)OC1C[C@@H](COP(=O)(O)O)O[C@H]1n1cnc2c(NC(=O)c3ccncc3)ncnc21 (some centres unmarked) [Compound 31, 2-(6-(isonicotinamide)-9H-purin-9-yl)-5-(phosphonyl)methyl)tetrahydrofuran-3-yl valine salt]",IC50,[1]; Homo sapiens,33.6 µM
same,IC50,[2],41.2 µM
"CCCCCOC1CC(COCP(=O)(O)O)OC1n1cnc2c(NC(=O)c3ccncc3)ncnc21 (centres unmarked) [Compound 32, (((5-(6-(isonicotinamide)-9H-purine-9-yl)-4-(pentoxy)tetrahydrofuran-2-yl)methoxy)methyl)phosphonic acid]",IC50,[1],19.8 µM
same,IC50,[2],23 µM
"COC(=O)C(C)NP(=O)(Oc1ccccc1)OC1C[C@@H](CO)O[C@H]1n1cnc2c(N)ncnc21 (some centres unmarked) [Compound 33, methyl(((2-(6-amino-9H-purin-9-yl)-5-(hydroxymethyl)tetrahydrofuran-3-yl)oxy)(phenoxy)phosphoryl)alanine salt]",IC50,[1],29.5 µM
same,IC50,[2],36.5 µM
"Nc1ncnc2c1ncn2C1OC(COC2CC(CO)C(O)C2O)CC1O (centres unmarked) [Compound 40, 3-((5-(6-amino-9H-purin-9-yl)-4-hydroxytetrahydrofuran-2-yl)methoxy)-5-(hydroxymethyl)cyclopentane-1,2-diol]",IC50,[1]; Homo sapiens,189 µM
same,IC50,[2],164 µM
N-(4-chloro-3-hydroxy-5-(hydroxymethyl)tetrahydrofuran-2-yl)-9H-purine-6-yl)octadecylamine [Compound 22],IC50,[1],53.7 µM
same,IC50,[2],45 µM
isopropyl((((3-azide-4-hydroxy-5-(6-(isoniazid)-9H-purin-9-yl)tetrahydrofuran-2-yl)methoxy)methyl)(phenoxy)phosphoryl)alanine ester [Compound 28],IC50,[1],5.42 µM
same,IC50,[2],3.47 µM
